# According to PubChem BioAssay AID330 (DTP/NCI, 2004):
# Several values for one entry are separate records, joined by “and”; a condition that tells them apart may be missing. Equal values may be shown once. Inconclusive results and toxic doses are left out.
# Tested on: P388 leukemia ip, CD2F1 mice, survival T/C
# Assay: NCI In Vivo Anticancer Drug Screen. Data for tumor model P388 Leukemia (intraperitoneal) in CD2F1 (CDF1) mice
# Conditions: endpoint: median survival time, higher = longer survival
# Summary of the method: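 Mice carrying the transplanted tumor received test compound or vehicle. Survival was recorded in each group, and the value is the treated-group measurement divided by that of the vehicle-treated control group.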
# [1] = dose: 50.0 mg/kg/injection, schedule: Q01DX005 (ip), vehicle: Klucel (hydroxypropylcellulose) (HPC)
# [2] = dose: 100.0 mg/kg/injection, schedule: Q01DX005 (ip), vehicle: Klucel (hydroxypropylcellulose) (HPC)
# [3] = dose: 200.0 mg/kg/injection, schedule: Q01DX005 (ip), vehicle: Klucel (hydroxypropylcellulose) (HPC)
# [4] = dose: 100.0 mg/kg/injection, schedule: Q04DX003 (ip), vehicle: saline with Tween-80
# [5] = dose: 200.0 mg/kg/injection, schedule: Q04DX003 (ip), vehicle: saline with Tween-80
# [6] = dose: 400.0 mg/kg/injection, schedule: Q04DX003 (ip), vehicle: saline with Tween-80
# [7] = dose: 50.0 mg/kg/injection, schedule: Q01DX009 (ip), vehicle: Klucel (hydroxypropylcellulose) (HPC)
# [8] = dose: 100.0 mg/kg/injection, schedule: Q01DX009 (ip), vehicle: Klucel (hydroxypropylcellulose) (HPC)
# [9] = dose: 200.0 mg/kg/injection, schedule: Q01DX009 (ip), vehicle: Klucel (hydroxypropylcellulose) (HPC)
# [10] = dose: 5.0 mg/kg/injection, schedule: Q01DX009 (ip), vehicle: saline
# [11] = dose: 100.0 mg/kg/injection, schedule: Q01DX009 (ip), vehicle: saline
# [12] = dose: 200.0 mg/kg/injection, schedule: Q01DX009 (ip), vehicle: saline
# [13] = dose: 100.0 mg/kg/injection, schedule: Q04DX002 (ip), vehicle: saline with Tween-80
# [14] = dose: 200.0 mg/kg/injection, schedule: Q04DX002 (ip), vehicle: saline with Tween-80
# [15] = dose: 400.0 mg/kg/injection, schedule: Q04DX002 (ip), vehicle: saline with Tween-80
# [16] = dose: 50.0 mg/kg/injection, schedule: Q01DX005 (ip), vehicle: saline with Tween-80
# [17] = dose: 100.0 mg/kg/injection, schedule: Q01DX005 (ip), vehicle: saline with Tween-80
# [18] = dose: 200.0 mg/kg/injection, schedule: Q01DX005 (ip), vehicle: saline with Tween-80
# [19] = dose: 50.0 mg/kg/injection, schedule: Q01DX009 (ip), vehicle: saline with Tween-80
# [20] = dose: 100.0 mg/kg/injection, schedule: Q01DX009 (ip), vehicle: saline with Tween-80
# [21] = dose: 6.25 mg/kg/injection, schedule: Q01DX009 (ip), vehicle: other
structure (smiles),measurement,setting,value
CC/C(=C(/CC)c1ccc(OCC(=O)N/N=C2\CCC3C4CCc5cc(O)ccc5C4=CCC23C)cc1)c1ccc(OCC(=O)N/N=C2/CCC3C4CCc5cc(O)ccc5C4=CCC23C)cc1 (stereo not drawn),T/C,"dose: 50.0 mg/kg/injection, schedule: Q01DX001 (ip), vehicle: Klucel (hydroxypropylcellulose) (HPC)",96 % of control
same,T/C,"dose: 100.0 mg/kg/injection, schedule: Q01DX001 (ip), vehicle: Klucel (hydroxypropylcellulose) (HPC)",95 % of control
same,T/C,"dose: 200.0 mg/kg/injection, schedule: Q01DX001 (ip), vehicle: Klucel (hydroxypropylcellulose) (HPC)",87 % of control
CCCCCCCCCCCCOCC(O)Cn1cnc2c(N)ncnc21 (stereo not drawn),T/C,[1],98 % of control
same,T/C,[2],94 % of control
same,T/C,[3],94 % of control
CC1=NOC2C1Sc1ccccc1N2C (stereo not drawn),T/C,[1],103 % of control
same,T/C,[2],102 % of control
same,T/C,[3],100 % of control
CCC(=O)NCC(CN(C)C)(c1ccccc1)c1ccccc1,T/C,"dose: 100.0 mg/kg/injection, schedule: Q01DX001 (ip), vehicle: saline with Tween-80",112 % of control
same,T/C,"dose: 200.0 mg/kg/injection, schedule: Q01DX001 (ip), vehicle: saline with Tween-80",100 % of control
O=C1OC(C(F)(F)F)=NC1Cc1ccccc1 (stereo not drawn),T/C,[4],107 % of control
same,T/C,[5],98 % of control
same,T/C,[6],101 % of control
CC(C)C[CH2][Pb]([Cl])([CH2]CC(C)C)[CH2]CC(C)C,T/C,"dose: 0.06 mg/kg/injection, schedule: Q01DX009 (ip), vehicle: saline + alcohol",103 % of control
same,T/C,"dose: 0.13 mg/kg/injection, schedule: Q01DX009 (ip), vehicle: saline + alcohol",108 % of control
same,T/C,"dose: 0.25 mg/kg/injection, schedule: Q01DX009 (ip), vehicle: saline + alcohol",105 % of control
same,T/C,"dose: 0.5 mg/kg/injection, schedule: Q01DX009 (ip), vehicle: saline + alcohol",119 % of control
same,T/C,"dose: 1.0 mg/kg/injection, schedule: Q01DX009 (ip), vehicle: saline + alcohol",118 % of control
same,T/C,"dose: 2.0 mg/kg/injection, schedule: Q01DX009 (ip), vehicle: saline",111 % of control
same,T/C,"dose: 4.0 mg/kg/injection, schedule: Q01DX009 (ip), vehicle: saline",110 % of control
same,T/C,"dose: 8.0 mg/kg/injection, schedule: Q01DX009 (ip), vehicle: saline",100 % of control
COc1ccc(-c2cncnc2N)cc1OC,T/C,[7],95 % of control
same,T/C,[8],97 % of control
same,T/C,[9],89 % of control
COc1cccc2c1C(=O)c1c(O)c3c(c(O)c1C2=O)C[C@@](O)(/C(C)=N/N1CCCCC1)C[C@@H]3OC1CC(N)C(O)C(C)O1 (stereo partly drawn),T/C,"dose: 1.25 mg/kg/injection, schedule: Q01DX009 (ip), vehicle: saline",156 % of control
same,T/C,"dose: 2.5 mg/kg/injection, schedule: Q01DX009 (ip), vehicle: saline",160 % of control
same,T/C,[10],101 % of control
CC(C)(O)c1ccc[n+]([O-])c1,T/C,"dose: 50.0 mg/kg/injection, schedule: Q01DX009 (ip), vehicle: saline",98 % of control
same,T/C,[11],107 % of control
same,T/C,[12],100 % of control
S=c1ncnc2c1ccc1[nH][nH]cc12,T/C,[13],88 % of control
same,T/C,[14],92 % of control
same,T/C,[15],107 % of control
CC(=O)Nc1ccc(S(=O)(=O)/C(=C/c2ccc(-c3ccc(Br)cc3)o2)c2ccc([N+](=O)[O-])o2)cc1,T/C,"dose: 50.0 mg/kg/injection, schedule: Q01DX009 (ip), vehicle: suspension in saline",86 % of control
same,T/C,"dose: 100.0 mg/kg/injection, schedule: Q01DX009 (ip), vehicle: suspension in saline",104 % of control
COc1cc2c(cc1OC)C13CCN4CC5=CCOC6CC(=O)N2C1C6C5C3C4 (stereo not drawn) (tested in a mixture with another compound),T/C,"dose: 12.5 mg/kg/injection, schedule: Q01DX005 (ip), vehicle: saline",90 % of control
same,T/C,"dose: 25.0 mg/kg/injection, schedule: Q01DX005 (ip), vehicle: saline",95 % of control
same,T/C,"dose: 50.0 mg/kg/injection, schedule: Q01DX005 (ip), vehicle: saline",98 % of control
CCNC(=S)N/N=C(/c1ccccc1)c1ccccn1,T/C,[7],105 % of control
same,T/C,[8],95 % of control
same,T/C,[9],115 % of control
CC1CCCN2C(=O)CN(CCc3ccccc3)CC(=O)N12 (stereo not drawn),T/C,[16],99 % of control
same,T/C,[17],100 % of control
same,T/C,[18],100 % of control
Cc1c(C)c(N(CCCl)CCCl)c(C)c2c1OC(C)(CCCC(C)CCCC(C)CCCC(C)C)CC2 (stereo not drawn),T/C,[13],113 % of control
same,T/C,[14],113 % of control
same,T/C,[15],115 % of control
Cn1c([N+](=O)[O-])cnc1-c1nc(/C=N/N2CCS(=O)(=O)CC2)cs1,T/C,"dose: 25.0 mg/kg/injection, schedule: Q01DX009 (ip), vehicle: saline with Tween-80",96 % of control
same,T/C,[19],96 % of control
same,T/C,[20],90 % of control
Nc1ncnc2c1ncn2C(/C=N/Nc1ccccc1)OC(/C=N\Nc1ccccc1)CO (stereo not drawn),T/C,[16],106 % of control
same,T/C,[17],106 % of control
same,T/C,[18],107 % of control
C[C@]12CC[C@H](O)C[C@@H]1CC[C@@H]1[C@@H]2C(=O)C[C@@]2(C)[C@H]1CC[C@]2(O)C(=O)CBr,T/C,"dose: 264.0 mg/kg/injection, schedule: Q04DX003 (ip), vehicle: saline with Tween-80",109 % of control
same,T/C,[6],100 % of control
same,T/C,"dose: 600.0 mg/kg/injection, schedule: Q04DX003 (ip), vehicle: saline with Tween-80",95 % of control
CCOC(CNN)OCC,T/C,[11],106 % of control
same,T/C,[12],91 % of control
Cc1ccc(S(=O)(=O)N/N=C/C(=O)O)cc1,T/C,"dose: 6.25 mg/kg/injection, schedule: Q01DX009 (ip), vehicle: Klucel (hydroxypropylcellulose) (HPC)",110 % of control and 119 % of control
same,T/C,[21],106 % of control
same,T/C,"dose: 6.25 mg/kg/injection, schedule: Q01DX009 (ip), vehicle: water",108 % of control
same,T/C,"dose: 12.5 mg/kg/injection, schedule: Q01DX009 (ip), vehicle: Klucel (hydroxypropylcellulose) (HPC)",114 % of control and 117 % of control and 122 % of control
same,T/C,"dose: 12.5 mg/kg/injection, schedule: Q01DX009 (ip), vehicle: saline with Tween-80",121 % of control
same,T/C,[7],152 % of control
same,T/C,[8],104 % of control and 119 % of control and 117 % of control
same,T/C,[20],107 % of control
CC(=O)N1C=CC(=C2C=CN(C(C)=O)C=C2)C=C1,T/C,[10],100 % of control
same,T/C,"dose: 10.0 mg/kg/injection, schedule: Q01DX009 (ip), vehicle: saline",88 % of control
same,T/C,"dose: 20.0 mg/kg/injection, schedule: Q01DX009 (ip), vehicle: saline",103 % of control
COC1CC(C)(O)Cc2cc3c(c(O)c21)C(=O)c1c(O)cc2c(c1C3=O)OC1OC2(C)C(O)C(N(C)C)C1O (stereo not drawn),T/C,[21],158 % of control
same,T/C,"dose: 12.5 mg/kg/injection, schedule: Q01DX009 (ip), vehicle: other",176 % of control
same,T/C,"dose: 25.0 mg/kg/injection, schedule: Q01DX009 (ip), vehicle: other",168 % of control
CN(C)/N=C1\C(=O)Nc2c(Cl)cc(Cl)cc21,T/C,[7],94 % of control
same,T/C,[8],94 % of control
same,T/C,[9],94 % of control
C=C(Cl)CSc1ncnc2nc[nH]c12,T/C,[19],100 % of control
same,T/C,"dose: 50.0 mg/kg/injection, schedule: Q04DX003 (ip), vehicle: saline with Tween-80",95 % of control
same,T/C,[20],109 % of control
same,T/C,[4],91 % of control
same,T/C,"dose: 200.0 mg/kg/injection, schedule: Q01DX009 (ip), vehicle: saline with Tween-80",109 % of control
same,T/C,[5],91 % of control
CN1NC(c2ccccc2)=C(C#N)C(=O)CC1c1cccs1 (stereo not drawn),T/C,"dose: 60.0 mg/kg/injection, schedule: Q01DX005 (ip), vehicle: saline with Tween-80",95 % of control
same,T/C,"dose: 120.0 mg/kg/injection, schedule: Q01DX005 (ip), vehicle: saline with Tween-80",88 % of control
same,T/C,"dose: 240.0 mg/kg/injection, schedule: Q01DX005 (ip), vehicle: saline with Tween-80",96 % of control
CC(=O)NC1=C(O)C2C(c3ccc(C)cc3)C(C#N)C(=O)N2C1=O (stereo not drawn),T/C,"dose: 100.0 mg/kg/injection, schedule: Q01DX001 (ip), vehicle: saline",105 % of control
same,T/C,"dose: 200.0 mg/kg/injection, schedule: Q01DX001 (ip), vehicle: saline",97 % of control
same,T/C,"dose: 400.0 mg/kg/injection, schedule: Q01DX001 (ip), vehicle: saline",99 % of control
